Experimental data: publication PMC6496074, “The Evolution of Azole Resistance in Candida albicans Sterol 14α-Demethylase (CYP51) through Incremental Amino Acid Substitutions” (Antimicrobial Agents and Chemotherapy, 2019)

Tests used:
Assay in all cases: CYP51 reconstitution assay
Assay type in all cases: biochemical
CaCYP51 Y132F+F145L = biological target: T1, CaCYP51 Y132F+F145L (Candida albicans, UniProt P10613, F145L/Y132F); conditions: 0.25 h, read-out: Residual CYP51 activity (%) ± SD
T1 construct: made in house; host or cells: E. coli DH5α (pCWori+)
Protocol: (§1) Azole antifungal agents were added in 2.5 μl dimethyl sulfoxide, followed by 10 min of incubation at 37°C prior to assay initiation with 4 mM β-NADPH-Na4. The samples were then shaken for 15 min at 37°C. Sterol metabolites were recovered by extraction with ethyl acetate, followed by derivatization with 0.1 ml N,O-bis(trimethylsilyl)trifluoroacetamide (BSTFA)–trimethylchlorosilane (TMCS) (99:1) and 0.3 ml anhydrous pyridine (2 h at 80°C), prior to analysis by gas chromatography-mass spectrometry (GC-MS) ([52]). IC50 determinations were performed in duplicate.

CaCYP51 D278N = biological target: T2, CaCYP51 D278N (Candida albicans, UniProt P10613, D278N); conditions: 0.25 h, 4 μM triazole, % of activity without triazole, read-out: Residual CYP51 activity (%) ± SD
T2 construct: made in house; host or cells: E. coli DH5α (pCWori+)
T2 sequence (P10613 whole entry, looked up, stated change not applied): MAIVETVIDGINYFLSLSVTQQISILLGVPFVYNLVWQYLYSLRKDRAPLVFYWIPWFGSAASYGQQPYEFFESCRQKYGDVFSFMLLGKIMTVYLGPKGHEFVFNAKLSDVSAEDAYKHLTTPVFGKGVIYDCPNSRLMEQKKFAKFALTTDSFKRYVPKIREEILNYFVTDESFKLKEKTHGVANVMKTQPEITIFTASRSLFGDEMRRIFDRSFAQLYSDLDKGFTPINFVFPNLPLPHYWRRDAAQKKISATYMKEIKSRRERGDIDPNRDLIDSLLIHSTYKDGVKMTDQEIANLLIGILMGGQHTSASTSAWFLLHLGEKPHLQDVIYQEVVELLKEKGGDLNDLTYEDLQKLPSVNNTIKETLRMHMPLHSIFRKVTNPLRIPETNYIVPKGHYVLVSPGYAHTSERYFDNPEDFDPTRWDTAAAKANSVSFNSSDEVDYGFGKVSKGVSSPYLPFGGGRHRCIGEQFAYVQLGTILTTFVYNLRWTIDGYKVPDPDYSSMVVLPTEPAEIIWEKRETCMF
Protocol: as §1

CaCYP51 D278N+G464S = biological target: T3, CaCYP51 D278N+G464S (Candida albicans, UniProt P10613, D278N/G464S); conditions: 0.25 h, 4 μM triazole, % of activity without triazole, read-out: Residual CYP51 activity (%) ± SD
T3 construct: made in house; host or cells: E. coli DH5α (pCWori+)
T3 sequence (P10613 whole entry, looked up, stated change not applied): as above
Protocol: as §1

CaCYP51 F126V = biological target: T4, CaCYP51 F126V (Candida albicans, UniProt P10613, F126V); conditions: 0.25 h, 4 μM triazole, % of activity without triazole, read-out: Residual CYP51 activity (%) ± SD
T4 construct: made in house; host or cells: E. coli DH5α (pCWori+)
Protocol: as §1

CaCYP51 F145L = biological target: T5, CaCYP51 F145L (Candida albicans, UniProt P10613, F145L); conditions: 0.25 h, 4 μM triazole, % of activity without triazole, read-out: Residual CYP51 activity (%) ± SD
T5 construct: made in house; host or cells: E. coli DH5α (pCWori+)
Protocol: as §1

CaCYP51 F449Y = biological target: T6, CaCYP51 F449Y (Candida albicans, UniProt P10613, F449Y); conditions: 0.25 h, 4 μM triazole, % of activity without triazole, read-out: Residual CYP51 activity (%) ± SD
T6 construct: made in house; host or cells: E. coli DH5α (pCWori+)
T6 sequence (P10613 whole entry, looked up, stated change not applied): as above
Protocol: as §1

CaCYP51 G307S = biological target: T7, CaCYP51 G307S (Candida albicans, UniProt P10613, G307S); conditions: 0.25 h, 4 μM triazole, % of activity without triazole, read-out: Residual CYP51 activity (%) ± SD
T7 construct: made in house; host or cells: E. coli DH5α (pCWori+)
Protocol: as §1

CaCYP51 G307S+G450E = biological target: T8, CaCYP51 G307S+G450E (Candida albicans, UniProt P10613, G307S/G450E); conditions: 0.25 h, 4 μM triazole, % of activity without triazole, read-out: Residual CYP51 activity (%) ± SD
T8 construct: made in house; host or cells: E. coli DH5α (pCWori+)
T8 sequence (P10613 whole entry, looked up, stated change not applied): as above
Protocol: as §1

CaCYP51 G448E = biological target: T9, CaCYP51 G448E (Candida albicans, UniProt P10613, G448E); conditions: 0.25 h, 4 μM triazole, % of activity without triazole, read-out: Residual CYP51 activity (%) ± SD
T9 construct: made in house; host or cells: E. coli DH5α (pCWori+)
T9 sequence (P10613 whole entry, looked up, stated change not applied): as above
Protocol: as §1

CaCYP51 G450E = biological target: T10, CaCYP51 G450E (Candida albicans, UniProt P10613, G450E); conditions: 0.25 h, 4 μM triazole, % of activity without triazole, read-out: Residual CYP51 activity (%) ± SD
T10 construct: made in house; host or cells: E. coli DH5α (pCWori+)
T10 sequence (P10613 whole entry, looked up, stated change not applied): as above
Protocol: as §1

CaCYP51 G464S = biological target: T11, CaCYP51 G464S (Candida albicans, UniProt P10613, G464S); conditions: 0.25 h, 4 μM triazole, % of activity without triazole, read-out: Residual CYP51 activity (%) ± SD
T11 construct: made in house; host or cells: E. coli DH5α (pCWori+)
Protocol: as §1

CaCYP51 I471T = biological target: T12, CaCYP51 I471T (Candida albicans, UniProt P10613, I471T); conditions: 0.25 h, 4 μM triazole, % of activity without triazole, read-out: Residual CYP51 activity (%) ± SD
T12 construct: made in house; host or cells: E. coli DH5α (pCWori+)
Protocol: as §1

CaCYP51 K143R = biological target: T13, CaCYP51 K143R (Candida albicans, UniProt P10613, K143R); conditions: 0.25 h, 4 μM triazole, % of activity without triazole, read-out: Residual CYP51 activity (%) ± SD
T13 construct: made in house; host or cells: E. coli DH5α (pCWori+)
Protocol: as §1

CaCYP51 P230L = biological target: T14, CaCYP51 P230L (Candida albicans, UniProt P10613, P230L); conditions: 0.25 h, 4 μM triazole, % of activity without triazole, read-out: Residual CYP51 activity (%) ± SD
T14 construct: made in house; host or cells: E. coli DH5α (pCWori+)
Protocol: as §1

CaCYP51 Q474K = biological target: T15, CaCYP51 Q474K (Candida albicans, UniProt P10613, Q474K); conditions: 0.25 h, 4 μM triazole, % of activity without triazole, read-out: Residual CYP51 activity (%) ± SD
T15 construct: made in house; host or cells: E. coli DH5α (pCWori+)
Protocol: as §1

CaCYP51 R467K = biological target: T16, CaCYP51 R467K (Candida albicans, UniProt P10613, R467K); conditions: 0.25 h, 4 μM triazole, % of activity without triazole, read-out: Residual CYP51 activity (%) ± SD
T16 construct: made in house; host or cells: E. coli DH5α (pCWori+)
Protocol: as §1

CaCYP51 S279F = biological target: T17, CaCYP51 S279F (Candida albicans, UniProt P10613, S279F); conditions: 0.25 h, 4 μM triazole, % of activity without triazole, read-out: Residual CYP51 activity (%) ± SD
T17 construct: made in house; host or cells: E. coli DH5α (pCWori+)
T17 sequence (P10613 whole entry, looked up, stated change not applied): as above
Protocol: as §1

CaCYP51 S405F = biological target: T18, CaCYP51 S405F (Candida albicans, UniProt P10613, S405F); conditions: 0.25 h, 4 μM triazole, % of activity without triazole, read-out: Residual CYP51 activity (%) ± SD
T18 construct: made in house; host or cells: E. coli DH5α (pCWori+)
Protocol: as §1

CaCYP51 V456I = biological target: T19, CaCYP51 V456I (Candida albicans, UniProt P10613, V456I); conditions: 0.25 h, 4 μM triazole, % of activity without triazole, read-out: Residual CYP51 activity (%) ± SD
T19 construct: made in house; host or cells: E. coli DH5α (pCWori+)
Protocol: as §1

CaCYP51 V488I = biological target: T20, CaCYP51 V488I (Candida albicans, UniProt P10613, V488I); conditions: 0.25 h, 4 μM triazole, % of activity without triazole, read-out: Residual CYP51 activity (%) ± SD
T20 construct: made in house; host or cells: E. coli DH5α (pCWori+)
Protocol: as §1

CaCYP51 Wild type = biological target: T21, CaCYP51 Wild type (Candida albicans, UniProt P10613); conditions: 0.25 h; Wild type; 4 μM triazole; % of activity without triazole; read-out: Residual CYP51 activity (%) ± SD
T21 construct: made in house; host or cells: E. coli DH5α (pCWori+)
Protocol: as §1

CaCYP51 Y118A = biological target: T22, CaCYP51 Y118A (Candida albicans, UniProt P10613, Y118A); conditions: 0.25 h, 4 μM triazole, % of activity without triazole, read-out: Residual CYP51 activity (%) ± SD
T22 construct: made in house; host or cells: E. coli DH5α (pCWori+)
T22 sequence (P10613 whole entry, looked up, stated change not applied): as above
Protocol: as §1

CaCYP51 Y132F = biological target: T23, CaCYP51 Y132F (Candida albicans, UniProt P10613, Y132F); conditions: 0.25 h, 4 μM triazole, % of activity without triazole, read-out: Residual CYP51 activity (%) ± SD
T23 construct: made in house; host or cells: E. coli DH5α (pCWori+)
Protocol: as §1

CaCYP51 Y132H = biological target: T24, CaCYP51 Y132H (Candida albicans, UniProt P10613, Y132H); conditions: 0.25 h, 4 μM triazole, % of activity without triazole, read-out: Residual CYP51 activity (%) ± SD
T24 construct: made in house; host or cells: E. coli DH5α (pCWori+)
Protocol: as §1

CaCYP51 Y132H+K143R = biological target: T25, CaCYP51 Y132H+K143R (Candida albicans, UniProt P10613, K143R/Y132H); conditions: 0.25 h, 4 μM triazole, % of activity without triazole, read-out: Residual CYP51 activity (%) ± SD
T25 construct: made in house; host or cells: E. coli DH5α (pCWori+)
T25 sequence (P10613 whole entry, looked up, stated change not applied): as above
Protocol: as §1

CaCYP51 Y257H = biological target: T26, CaCYP51 Y257H (Candida albicans, UniProt P10613, Y257H); conditions: 0.25 h, 4 μM triazole, % of activity without triazole, read-out: Residual CYP51 activity (%) ± SD
T26 construct: made in house; host or cells: E. coli DH5α (pCWori+)
Protocol: as §1

CaCYP51 Y447H = biological target: T27, CaCYP51 Y447H (Candida albicans, UniProt P10613, Y447H); conditions: 0.25 h, 4 μM triazole, % of activity without triazole, read-out: Residual CYP51 activity (%) ± SD
T27 construct: made in house; host or cells: E. coli DH5α (pCWori+)
Protocol: as §1

With `C[C@@H](c1ncncc1F)[C@](O)(Cn1cncn1)c1ccc(F)cc1F` [Voriconazole, voriconazole] the remaining activity at 4 µM (CaCYP51 Y132F+F145L) was 13.6 ± 0.19%, the remaining activity at 4 µM (CaCYP51 D278N) was 1.34 ± 0.05% and the remaining activity at 4 µM (CaCYP51 D278N+G464S) was 4.79 ± 0.11%. For the same molecule, the remaining activity at 4 µM (CaCYP51 F126V) was 0.19 ± 0.06%, the remaining activity at 4 µM (CaCYP51 F145L) was 0.37 ± 0.11% and the remaining activity at 4 µM (CaCYP51 F449Y) was 0.56 ± 0.12%. It also gave a remaining activity at 4 µM (CaCYP51 G307S) of 0.41 ± 0.04%, a remaining activity at 4 µM (CaCYP51 G307S+G450E) of 0.41 ± 0.1% and a remaining activity at 4 µM (CaCYP51 G448E) of 1.89 ± 0.61%. The remaining activity at 4 µM (CaCYP51 G450E) was 3.5 ± 0.17%, the remaining activity at 4 µM (CaCYP51 G464S) was 0.1 ± 0.01% and the remaining activity at 4 µM (CaCYP51 I471T) was 0.92 ± 0.05%. For the same molecule, the remaining activity at 4 µM (CaCYP51 K143R) was 3.12 ± 0.27%, the remaining activity at 4 µM (CaCYP51 P230L) was 0.13 ± 0.12% and the remaining activity at 4 µM (CaCYP51 Q474K) was 0.34 ± 0.04%. The remaining activity at 4 µM (CaCYP51 R467K) was 0.52 ± 0.18%, the remaining activity at 4 µM (CaCYP51 S279F) was 6.15 ± 0.66% and the remaining activity at 4 µM (CaCYP51 S405F) was 1.94 ± 0.12%. The remaining activity at 4 µM (CaCYP51 V456I) was 0.79 ± 0.07%, the remaining activity at 4 µM (CaCYP51 V488I) was 0.13 ± 0.08% and the remaining activity at 4 µM (CaCYP51 Wild type) was 0.11 ± 0.01%. For the same molecule, the remaining activity at 4 µM (CaCYP51 Y118A) was 0.28 ± 0.04%, the remaining activity at 4 µM (CaCYP51 Y132F) was 1.09 ± 0.05% and the remaining activity at 4 µM (CaCYP51 Y132H) was 0.33 ± 0.19%. It also gave a remaining activity at 4 µM (CaCYP51 Y132H+K143R) of 39.6 ± 8.63%, a remaining activity at 4 µM (CaCYP51 Y257H) of 0.63 ± 0.27% and a remaining activity at 4 µM (CaCYP51 Y447H) of 2.07 ± 1.04%.
